# In US20210121435A1, “METHODS FOR TREATING SEIZURES IN EPILEPSY WITH A COMPOSITION COMPRISING CANNABINOIDS” (MEDRELEAF CORP., priority 2019, published 2021):
# Read-outs that look alike come from different tables or passages of the source.
# Tests used:
# [1] = Pharmacokinetics of orally administered CBD; assay type: in vivo, human; conditions: oral; 4 to 5 times the half-life
# Source text: The half-life of CBD, administered orally, may be about […]. A steady state is may be reached about 10 days after regular dosing begins (i.e., 4 to 5 times the half-life). As such, with a 4 week treatment period all patients may achieve a steady state of CBD blood concentration.
# mice = conditions: intraperitoneally or orally; cited from earlier work
# [2] = Toxicity assessment of kindled rats before stimulation (Loscher ataxia scale); assay type: in vivo, rat; conditions: IP
# Description: Before each round of drug testing stimulation, the rats were assessed for motor toxicity using the Loscher ataxia scale. This scale is used to determine motor impairment. The scale rankings are as follows: Stage 1—slight ataxia in hind legs, no decrease in abdominal muscle tone; Stage 2—more pronounced ataxia, slight decrease in abdominal muscle tone, flat body position; Stage 3—increased ataxia, continued decrease in abdominal muscle tone, more pronounced flat body posture, splayed hind legs, and crawling during forward motion; Stage 4—marked ataxia, loss of balance during forward motion, loss of abdominal muscle tone, flat body posture, splayed hind legs, and dragging during forward motion; Stage 5—very marked ataxia, frequent loss of balance during forward motion, loss of abdominal muscle tone.
# [3] = cited from earlier work
# convulsive seizures = conditions: participants with Dravet Syndrome and drug-resistant seizures; cited from earlier work
# [4] = test system: Amygdala kindled rats (generalized and focal seizures); test: Seizure suppression in amygdala kindled rats; assay type: in vivo, rat; conditions: IP; for suppression of focal seizures: suppressed = absence of EEG seizure activity lasting more than 4 seconds, FIGS. 1B, 2B; for suppression of generalized seizures: suppressed = absence of stage 3 or higher seizure (Racine scale), FIGS. 1A, 2A
# Description: Preclinical studies were performed to study the effects of CBD or THC alone, or CBD in combination with THC, on seizures. Amygdala kindled rats were used as a model for generalized and focal seizures in these studies.
# Kindling Procedure: An insulated bipolar electrode was implanted in the right basolateral amygdala of male Sprague Dawley rats (50-55 days old). Two weeks following implantation, the rats began daily kindling. The stimulation used for kindling was a 1 second train of biphasic 60 Hz square wave pulses at an intensity of 400 micro-amps, once per day. Both the focal afterdischarge (AD) and convulsive behavior were monitored for a minimum of 30 seconds after stimulation or until an observed seizure ended. Rats were stimulated once daily until ten stage 5 Racine scale seizures have been generated, after which they are considered fully kindled (typically 3-4 weeks).
# Seizure Scoring: The focal seizures were defined by observing the afterdischarge (AD) recorded by electroencephalogram (EEG) via the implanted electrode. The focal AD can last as long as 1-2 minutes post stimulation. The focal AD is not necessarily accompanied by a secondary generalized motor seizure, especially early in the kindling process. Early behavioural signs may include the cessation of behaviour or blinking. After sufficient kindling has been induced, generalized motor events of seizure generalization began to occur. These events were rated using the Racine scale. The stages are as follows: Stage 1—facial clonus; Stage 2—head nodding; Stage 3—forelimb clonus; Stage 4—forelimb clonus and rearing on hindlimbs; Stage 5—loss of postural control (rearing and following over).
# Seizure Threshold Testing: Two days after the 10th stage 5 seizure was recorded, the animal's seizure threshold was tested using ascending series technique. The process was started at an intensity of 20 micro-amps, which was increased by 20 micro-amps every two minutes until an AD was produced. The seizure threshold is defined as the current needed to produce the AD.
# Stability Testing: After seizure thresholds were determined, the animals underwent stability testing to confirm the reliability of the threshold. The animals were stimulated at 25% above the determined threshold 3 times per week for 2 weeks. If seizures were consistently evoked at this level of stimulation, the rat was considered stable. […]
# The effects of: a) CBD alone (0, 20, 40, 80, 160, 320 mg/kg; 10 subjects per dose); b) THC alone (0, 5, 10, 20, 40, 80 mg/kg; 10 subjects per dose); or c) CBD+THC (15:1) (CBD dose of 0, 20, 40, 80, 160, 320 mg/kg; 10 subjects per dose), were tested. […] A generalized seizure was considered to be suppressed if there was an absence of stage 3 or higher seizure, assessed using the Racine scale. […]
# seizures [5] = conditions: after 3 months of treatment; TSC and treatment-resistant epilepsy; cited from earlier work
# seizures [6] = conditions: cited from earlier work; for median reduction (seizures): at 12 weeks
# seizures [7] = conditions: of the 7 participants who received CBD; temporal-lobe epilepsy; cited from earlier work
# [8] = in vivo; cited from earlier work
SMILES,time to steady state after regular dosing begins [1],dose-response of therapeutic benefits (anti-inflammatory and anti-nociceptive) (mice),doses with no observed toxic effects [2],"safety and tolerability in clinical trials ([3]; human, in vivo)",doses for which no significant adverse effects have been reported ([3]; p.o.),frequency of occurrence of convulsive seizures (convulsive seizures),patients who became seizure free (convulsive seizures),suppression of focal seizures [4],suppression of generalized seizures [4],median percent change in total weekly seizure frequency (seizures [5]) [%],median reduction (seizures) (seizures [6]; patients with DS) [%],participants free of seizures in the last four weeks of treatment (seizures [6]; patients with DS) [participants],median reduction (seizures) (seizures [6]; patients with LGS) [%],participants free of seizures in the last four weeks of treatment (seizures [6]; patients with LGS) [participant],participants seizure free during treatment (seizures [7]),doses at which psychotoxicity was observed [2],dose at which there may be psychotropic effects [8] [mg]
"C=C(C)[C@@H]1CCC(C)=C[C@H]1c1c(O)cc(CCCCC)cc1O [CBD, cannabidiol]",about 10 days,bell-shaped dose-response,up to 320 mg/kg,safe and well tolerated across a wide dosage range,up to 1500 mg/day,significantly reduced,about 5%,suppress some generalized and focal seizures,suppress some generalized and focal seizures,−48.8,49.8,4,36.8,1,4,,
"CCCCCc1cc(O)c2c(c1)OC(C)(C)[C@@H]1CCC(C)=C[C@@H]21 [THC, Δ^9-tetrahydrocannabinol]",,,,,,,,suppress some generalized and focal seizures,suppress some generalized and focal seizures,,,,,,,above 10 mg/kg,10
